Test results taken from patent publication US12728111B2, “Electrophilic compounds and electrophilic prodrugs for treating aneurysm” (University of Pittsburgh—Of the Commonwealth System of …, priority 2020, dated 2026).

Assays:
[1] = system: oxLDL-induced Il1b and Mmp9 expression in BMDMs; test: Real-time PCR of oxLDL-induced pro-inflammatory genes in BMDMs; type: cell-based, mouse; conditions: PPARγ antagonist or siRNA given with NO2—OA
Experimental: FIG. 3. NO2—OA prevents oxLDL-induced NFκB activation and pro-inflammatory cytokine production. Primary BMDMs were pretreated with vehicle, OA (2.5 μM) or NO2—OA (2.5 μM) for 1 h, followed by treatment of oxLDL (50 to 100 μg/ml) for the indicated times. (A, B) Nuclear (A) and cytoplasmic protein (B) fractions were isolated 1 h after oxLDL treatment and subjected to western blot with antibodies against p65, lamin a/c (nuclear marker) and GAPDH (cytosolic marker). Representative western blot images of three independent experiments are shown. (C) Quantification of the p65 nuclear to cytoplasmic ratio by image studio (normalized by the internal control, n=3). (D-F) Following 8 h of oxLDL treatment, levels of IL6, MCP1 and TNFα in the cell medium were measured by ELISA (n=4). (G) Real-time PCR quantification of gene expression levels of IL1b and Mmp9 in total mRNA extracted from the BMDMs. (C) Ordinary one-way ANOVA followed by Tukey's test was performed. As of (D-F), the basal level contains several non-detectable values, so ordinary one-way ANOVA followed by correction of FDR were performed for the oxLDL-treated groups only. Ordinary one-way ANOVA followed by Tukey's test was performed for (G). Data presented as mean±SEM. A p<0.05 for both the main test and post hoc test was considered statistically significant.
Mice suprarenal aortas were collected after the measurement of their diameter. Human aortic aneurysm samples were obtained from the Department of Cardiac Surgery at the University of Michigan. Samples from humans and mice were snap-frozen in liquid nitrogen for later processing. RNA from tissue was extracted using TRIzol (#15596018, Invitrogen). RNA from cells was isolated with the RNeasy Mini Kit (#74106, QIAGEN). SuperScript™ III First-Strand Synthesis System (#18080051, Invitrogen) was used to reverse-transcribe mRNA into cDNA. Gene expression was quantified in triplicates by quantitative real-time PCR (qPCR) using IQ SYBR Green Supermix (#1708882, Bio-Rad) with the indicated gene primers.

[2] = system: AngII/PCSK9-induced AAA mouse model; test: Ang II plus hypercholesterolemia (AngII/PCSK9) induced AAA mouse model; type: in vivo
Experimental: FIG. 1. Characterization of the protective effect of NO2—OA (10-nitro-octadec-9-enoic acid) in the Ang II plus hypercholesterolemia-induced AAA mouse model. (A) Schematic illustration of the in vivo experimental design. Ten week old male C57BL/6 mice were IP injected with AAV carrying PCSK9 gain-of-function (D377Y) mutation and fed a western diet. After two weeks, each mouse was implanted with a pump delivering AngII at a rate of 1,500 ng/kg/min plus an additional pump containing either PEG-400 (vehicle), OA or NO2—OA with a delivery rate of 5 mg/kg/day (n=25 to 30 per group) and carried to the endpoint for another four weeks. Mice with ruptured aorta within the first week or with total plasma cholesterol less than 250 mg/dl were excluded from the study. (B) Representative morphological differences of the abdominal aorta. (C) AAA incidence calculated by using 1.2 mm as the cutoff diameter indicated by the dotted line in (D). (D) Average maximal diameter of the suprarenal aorta region. (E) Representative H&E and VVG staining of the paraffin-embedded suprarenal aortic cross-sections (5 μm). (F) Grade of elastic fiber degradation in the aorta (1 to 4). A 2×3 Fisher's exact test followed by posthoc test was performed for (C). For (D) and (F), the Kruskal-Wallis test followed by Dunn's multiple comparisons was performed. Continuous data are presented as mean±SEM. Scale bar=20 μm for (E). A p<0.05 for both the main test and post hoc test was considered statistically significant.
Ten weeks old male C57BL/6J mice were purchased from The Jackson Laboratory. The murine AAA model induced by AngII/PCSK9 gain-of-function mutation is well-established. After acclimation for 1 week, mice were fed a western diet (TD.88137, Envigo) and intraperitoneally injected with 2×1011 genomic copies of AAV-PCSK9.D377Y (AAV serotype 8, Penn Vector Core). Two weeks later, each mouse was subcutaneously implanted with two osmotic pumps (Model #2004, Alzet). One was loaded with AngII (#H-1706, Bachem), releasing at a rate of 1,500ng/kg/min, while the other one was loaded with PEG-400, OA or NO2—OA at a delivery rate of 5 mg/kg/day for OA or NO2—OA. After 4-weeks infusion, mice were euthanized and the maximal outer diameter of the suprarenal aorta was assessed with a digital caliper by a third person blinded to the treatment. Suprarenal aortas with a maximal diameter ≥50% larger than standard size (≥1.2 mm) were considered as abdominal aortic aneurysms. Mice dead within the first week of pump implantation or with a serum total cholesterol level less than 250 mg/dL were excluded from the study. All animal procedures were performed following the protocols approved by the Institutional Animal Care & Use Committee (IACUC) at the University of Michigan.
H&E and Verhoeff Van Gieson staining of paraffin or frozen sections of mouse suprarenal abdominal aorta were performed by the In-Vivo Animal Core at the University of Michigan. Elastin degradation grade was calculated as we previously reported.

Row | Compound | protective effect of NO2—OA on oxLDL-induced Il1b and Mmp9 expression [1] | AAA incidence ([2]; 5 mg/kg/day subcutaneous infusion, after 4 weeks, cutoff diameter 1.2 mm) [%] | maximal diameter of the suprarenal aorta region ([2]; 5 mg/kg/day subcutaneous infusion, after 4 weeks, mean±SEM) [mm] | ECM degradation / elastin fiber degradation ([2]; 5 mg/kg/day, 4 weeks, VVG staining, grade 1 to 4)
1 | O=C(Nc1ccccc1)c1cc([N+](=O)[O-])ccc1Cl [GW9662, reference compound] | partially blocked | – | – | –
2 | CCCCCCCCC=CCCCCCCCC(=O)O [OA, octadec-9-enoic acid, reference compound] | – | 69.6 | 1.78±0.18 | prominent
